Columns and labels:
Assay in all cases: Test E greenhouse herbicide test, pre- and postemergence
Assay type in all cases: in vivo
Conditions in all cases: Preemergence
[1] = system: waterhemp (common waterhemp, Amaranthus rudis)
How it was run: (§1)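 For each species, sown seed in silt loam and young plants (2 to 18 cm) in a peat/vermiculite medium were each treated with compound dissolved in surfactant-containing, non-phytotoxic solvent. After 14 to 21 d under greenhouse conditions, effects were visually rated, 100 meaning complete control.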

[2] = system: ragweed (common ragweed, Ambrosia elatior)
How it was run: as §1

[3] = system: pigweed, palmer (palmer pigweed, Amaranthus palmeri)
How it was run: as §1

[4] = system: field bindweed (Convolvulus arvensis)
How it was run: as §1

[5] = system: beggarticks (hairy beggarticks, Bidens pilosa)
How it was run: as §1

soybean (Glycine max) = system: soybean (Glycine max)
How it was run: as §1

[6] = system: momingglory (Ipomoea coccinea)
How it was run: as §1

[7] = system: dayflower (Virginia (VA) dayflower, Commelina virginica)
How it was run: as §1

[8] = system: nutsedge, yellow (yellow nutsedge, Cyperus esculentus)
How it was run: as §1

[9] = system: johnsongrass (Sorghum halepense)
How it was run: as §1

[10] = 62 g ai/ha, scale 0 to 100 (0 no effect, 100 complete control)
[11] = 125 g ai/ha, scale 0 to 100 (0 no effect, 100 complete control)
[12] = 31 g ai/ha, scale 0 to 100, 0 no effect, 100 complete control
[13] = 250 g ai/ha, visual, scale 0 no effect to 100 complete control
[14] = 125 g ai/ha, visual, scale 0 no effect to 100 complete control

SMILES | Plant response rating, Waterhemp [1, 10] | Plant response rating, Waterhemp [1, 11] | Plant response rating, Waterhemp [1, 12] | Plant response rating, Waterhemp [1, 13] | Plant response rating, Ragweed [2, 10] | Plant response rating, Ragweed [2, 11] | Plant response rating, Ragweed [2, 12] | Plant response rating, Ragweed [2, 13] | Plant response rating, Pigweed, Palmer [3, 10] | Plant response rating, Pigweed, Palmer [3, 11] | Plant response rating, Pigweed, Palmer [3, 13] | Plant response rating, Field Bindweed [4, 10] | Plant response rating, Field Bindweed [4, 12] | Plant response rating, Field Bindweed [4, 13] | Plant response rating, Beggarticks [5, 10] | Plant response rating, Beggarticks [5, 12] | Plant response rating, Beggarticks [5, 13] | Plant response rating, Soybean (soybean (Glycine max); [10]) | Plant response rating, Soybean (soybean (Glycine max); [12]) | Plant response rating, Soybean (soybean (Glycine max); [13]) | other results
CC(=O)Oc1c(C)nn(C)c(=O)c1-c1c(C)sc2c(C)cc(C)cc12 [Compound 27] | 90 | 85 | 95 | 95 | 95 | 100 | 95 | 100 | 60 | 85 | 85 | 40 | 0 | 70 | 100 | 90 | 100 | 0 | 0 | 0 | Plant response rating, Field Bindweed [4, 14]: 70; Plant response rating, Beggarticks [5, 14]: 100; Plant response rating, Soybean (soybean (Glycine max); [11]): 0; Plant response rating, Morningglory [6, 10]: 85; Plant response rating, Morningglory [6, 11]: 90; Plant response rating, Morningglory [6, 12]: 85; Plant response rating, Morningglory [6, 13]: 100; Plant response rating, Dayflower, VA [7, 10]: 10; Plant response rating, Dayflower, VA [7, 12]: 0; Plant response rating, Dayflower, VA [7, 14]: 30; Plant response rating, Dayflower, VA [7, 13]: 65; Plant response rating, Nutsedge, Yellow [8, 10]: 15; Plant response rating, Nutsedge, Yellow [8, 11]: 98; Plant response rating, Nutsedge, Yellow [8, 12]: 10; Plant response rating, Nutsedge, Yellow [8, 13]: 80; Plant response rating, Johnsongrass [9, 10]: 75; Plant response rating, Johnsongrass [9, 12]: 70; Plant response rating, Johnsongrass [9, 14]: 75; Plant response rating, Johnsongrass [9, 13]: 70
CCOC(=O)Oc1c(C)nn(C)c(=O)c1-c1c(CC)ccc2ccccc12 [Compound 37] | 75 | 98 | 0 | 100 | 90 | 95 | 50 | 98 | 90 | 100 | 100 | 90 | 75 | 100 | 98 | 80 | 100 | 0 | 0 | 0 | Plant response rating, Pigweed, Palmer [3, 12]: 0; Plant response rating, Field Bindweed [4, 14]: 85; Plant response rating, Beggarticks [5, 14]: 98; Plant response rating, Morningglory [6, 10]: 40; Plant response rating, Morningglory [6, 11]: 50; Plant response rating, Morningglory [6, 12]: 15; Plant response rating, Morningglory [6, 13]: 65; Plant response rating, Dayflower, VA [7, 10]: 5; Plant response rating, Dayflower, VA [7, 12]: 0; Plant response rating, Dayflower, VA [7, 14]: 40; Plant response rating, Dayflower, VA [7, 13]: 60; Plant response rating, Nutsedge, Yellow [8, 10]: 0; Plant response rating, Nutsedge, Yellow [8, 11]: 65; Plant response rating, Nutsedge, Yellow [8, 12]: 0; Plant response rating, Nutsedge, Yellow [8, 13]: 70; Plant response rating, Johnsongrass [9, 10]: 0; Plant response rating, Johnsongrass [9, 12]: 0; Plant response rating, Johnsongrass [9, 14]: 100; Plant response rating, Johnsongrass [9, 13]: 100
Cc1ccc2ccccc2c1-c1c(O)c(C)nn(C)c1=O [Compound 59] | 100 | 100 | 75 | 100 | 95 | 100 | 100 | 100 | 98 | 100 | 100 | 75 | 65 | 95 | 100 | 100 | 100 | 30 | 35 | 70 | Plant response rating, Pigweed, Palmer [3, 12]: 95; Plant response rating, Field Bindweed [4, 14]: 95; Plant response rating, Beggarticks [5, 14]: 100; Plant response rating, Soybean (soybean (Glycine max); [11]): 30; Plant response rating, Morningglory [6, 10]: 95; Plant response rating, Morningglory [6, 11]: 98; Plant response rating, Morningglory [6, 12]: 75; Plant response rating, Morningglory [6, 13]: 100; Plant response rating, Dayflower, VA [7, 10]: 40; Plant response rating, Dayflower, VA [7, 12]: 10; Plant response rating, Dayflower, VA [7, 14]: 80; Plant response rating, Dayflower, VA [7, 13]: 80; Plant response rating, Nutsedge, Yellow [8, 10]: 35; Plant response rating, Nutsedge, Yellow [8, 11]: 75; Plant response rating, Nutsedge, Yellow [8, 12]: 50; Plant response rating, Nutsedge, Yellow [8, 13]: 70; Plant response rating, Johnsongrass [9, 10]: 25; Plant response rating, Johnsongrass [9, 12]: 0; Plant response rating, Johnsongrass [9, 14]: 80; Plant response rating, Johnsongrass [9, 13]: 80
C#CCOC(=O)Oc1c(C)nn(C)c(=O)c1-c1c(C)sc2ccc(C)cc12 [Compound 87] | 90 | 90 | 75 | 100 | 95 | 98 | 98 | 100 | 65 | 75 | 90 | 98 | 40 | 100 | 100 | 90 | 100 | 0 | 0 | 0 | Plant response rating, Pigweed, Palmer [3, 12]: 0; Plant response rating, Field Bindweed [4, 11]: 95; Plant response rating, Beggarticks [5, 11]: 100; Plant response rating, Soybean (soybean (Glycine max); [11]): 0; Plant response rating, Morningglory [6, 10]: 35; Plant response rating, Morningglory [6, 11]: 50; Plant response rating, Morningglory [6, 12]: 20; Plant response rating, Morningglory [6, 13]: 90; Plant response rating, Dayflower, VA [7, 10]: 0; Plant response rating, Dayflower, VA [7, 11]: 10; Plant response rating, Dayflower, VA [7, 12]: 0; Plant response rating, Dayflower, VA [7, 13]: 35; Plant response rating, Nutsedge, Yellow [8, 10]: 60; Plant response rating, Nutsedge, Yellow [8, 11]: 65; Plant response rating, Nutsedge, Yellow [8, 12]: 0; Plant response rating, Nutsedge, Yellow [8, 13]: 60; Plant response rating, Johnsongrass [9, 10]: 65; Plant response rating, Johnsongrass [9, 11]: 70; Plant response rating, Johnsongrass [9, 13]: 75

From patent US10597388B2, “Pyridazinone herbicides” (FMC CORPORATION, priority 2014, dated 2020)
